# Experimental data published in patent US20060135587A1, “Method and compounds for promoting healing and reducing inflammation” (priority 2002, published 2006).
# Columns and labels:
# [1] = tested on: lesions of the gastric mucosa; assay: Gastric lesions induced by immobilization and hypothermia; format: in vivo, rats; design: % reduction of degree of ulceration / % reduction of ulcerated area: concentration or dose not given beside the values; settings: Protective effect, 30 minutes before the test
# Experimental: The models used gastric ulcers induced by
# b) Immobilization and hypothermia (induced by water cooling);
# The compounds were administered intraperitoneally at a dose of 20 mg/kg; in the cryogenic ulcer model compound 2 was administered either intraperitoneally (10 mg/kg) or orally (20 mg/kg twice daily, ie. a total of 40 mg/kg/day) and was compared to orally-administered gastrocepin (1 mg/kg twice daily, ie. a total of 2 mg/kg/day).
# [2] = tested on: bradykinin-induced inflammation; assay: Bradykinin-induced acute inflammation in rats; format: in vivo
# Experimental: Acute inflammation was induced by sub-plantar injection of 0.1 ml of 0.01% of bradykinin in saline solution into the left paws of male rats weighing 180-200 g. The acuteness of the inflammation was assessed 30 minutes after injection of bradykinin by the change in the paw volume. The anti-inflammatory effect, assessed by the reduction of swelling, was expressed as a percentage of the initial paw […] compared to controls. The test substances were administered orally via an intra-gastric tube for three days and at one hour before administration of bradykinin. […] These were administered orally to rats for 3 days and at one hour before the injection of the agent. There were 12 rats in each group.
# bone plate defect = assay: Repair of bone plate defect of the rat lower jaw; format: in vivo, rats; settings: 50 mg/kg over the course of three months
# Experimental: A round or oval defect of the bone plate with a diameter of 2.5 mm was produced in the bone tissue of the rat lower jaw, using a dental drill under ether anaesthesia. In the post-operative period, the animals were kept in separate cages, with normal food and water ad libitum. The experiments were performed on 130 male rats weighing 180-200 g, with 10 rats in each group.
# The animal test groups were treated with Compound 2 (50 or 100 mg/kg) or methyl uracil (50 mg/kg) 24 hours after the damage and on a daily basis for three months. […] The following groups were used:
# The repair pattern of the injured bone was assessed morphologically on tissue sections after 30, 60 and 90 days. The sections were examined by light microscopy at magnifications of ×15, ×100, ×200, and ×400.
# myocardial infarction = assay: Clinical trial in subacute myocardial infarction and cardiac insufficiency (Example 23); format: in vivo, human
# Experimental: A clinical trial of Compound 2 was carried out on 100 patients aged from 25 to 75 years during the subacute period of myocardial infarction. Each patient continued to receive the treatment which s/he had been given prior to commencement of the trial. Compound 2 was administered in addition to the previous treatment. A control group received conventional treatment, ie. nitrate, anticoagulants and/or hypotensive agents as appropriate. The results of treatment of these two groups were compared with groups of patients receiving riboxine and placebo. Compound 2 was administered over a period of three weeks from the 7th to 28th days following infarction, and was administered orally at a dose of three 0.2 g tablets per day.
# The effects of treatment were monitored by 12-lead electrocardiography, using the QRS Scoring System. Haemodynamic parameters and the contractile function of the myocardium were monitored using a Toshiba ultrasound camera model SSH-60A, using conventional methods.
# The effect of Compound 2 was also studied in 25 patients aged 43 to 66 years suffering from cardiac insufficiency, in comparison with riboxine or a placebo.
# [3] = tested on: cryogenic injuries of the sigmoid colon; assay: Cryogenic damage of the colon, model of ulcerative colitis; format: in vivo, rats; settings: day 7
# Experimental: A model of cryogenic damage of the colon was used in this experiment to simulate ulcerative colitis. Cryogenic injuries of the sigmoid colon of rats were induced by pressing a metal rod of […] in diameter cooled in liquid nitrogen to the serous membrane of the colon for 10 seconds under ether anaesthesia.
# Tests were performed on 67 male rats weighing 180-200 g, with 8 animals in each group. Animals were kept in separate cages, with normal food and water ad libitum. The test compounds were administered orally on the second day after the operation, and then daily until healing was complete. Compound 2 or Compound 6 was administered to test animals at a dose of 20-50 mg/kg. The following agents were used for comparison:
# The nature of the healing of the ulcer injury was examined morphologically on days 1, 3 and 7. […] The inflammatory process extends beyond the injured area into the adjacent areas, and beyond the peritoneum into fatty connective tissue.
# rats = assay: Acute toxicity (LD50) in rats; format: in vivo
# Text: It is contemplated that in clinical use, treatment using oral tablets will take two to three weeks, with each patient receiving three tablets containing 0.6 g active compound per day.
# [4] = tested on: chronic active viral hepatitis; assay: Clinical study in chronic active viral hepatitis; format: in vivo, human; settings: 600 mg a day orally
# Experimental: 45 patients aged between 18 and 32 years old with chronic active viral hepatitis were divided into 4 groups and kept under observation. All patients had received conventional therapy, usually potassium orotate, riboxin and interferon prior to commencement of the trial.
# The first group (10 patients) received conventional therapy for 20 days. Assessment of clinical and biochemical indicators and serology data was carried out repeatedly for 20 days after the beginning of treatment.
# The second group (10 patients) received both conventional treatment and prednisolone at a dose of […] for 20 days. In this group the clinical-biochemical and serological analysis took place before the treatment, and 10 days and 20 days after the beginning of treatment.
# The third group (10 patients) received both conventional treatment and Compound 2 administered orally at a dose of 600 mg a day for 20 days. The control clinical-biochemical and serological analysis was carried out 20 days after the beginning of treatment.
# The fourth group (15 patients) received prednisolone either orally or intravenously at a dose of 15 mg a day for 10 days; then prednisolone was stopped and replaced by Compound 2 at a dose of 600 mg a day for 10 days. […]
smiles,measurement,setting,value
"CC[n+]1cn(C)c(C(=O)NC)c1C(=O)NC.O=S(=O)([O-])c1ccccc1 [Compound 2, 1-methyl-3-ethyl-4,5-bis(N-methylcarbamoyl)-imidazolium benzenesulfonate]",% reduction of degree of ulceration,[1],64%
same,% reduction of ulcerated area,[1],62%
same,Area of lesion,[1],4.1 ± 0.8
same,Average number of lesions per animal,[1]; 20 mg/kg intraperitoneally,4.1 ± 0.9
same,Increase in paw volume,[2]; 20 mg/kg orally,0.41 mL
same,Paw volume 30 minutes after administration of bradykinin,[2]; 20 mg/kg orally,1.80 ± 0.060 mL
same,Paw volume initial,[2]; 20 mg/kg orally,1.39 ± 0.040 mL
same,Swelling inhibition (%),[2]; 20 mg/kg orally,40.58%
same,Increase in paw volume,[2]; 50 mg/kg orally,0.34 mL
same,Paw volume 30 minutes after administration of bradykinin,[2]; 50 mg/kg orally,1.69 ± 0.060 mL
same,Paw volume initial,[2]; 50 mg/kg orally,1.35 ± 0.038 mL
same,Swelling inhibition (%),[2]; 50 mg/kg orally,50.72%
same,closing of bone defect,bone plate defect,the defect was almost fully closed by the newly formed primary callus bone tissue
same,side effects,myocardial infarction; both patient groups,No side effects were observed in either group
same,recovery of the contractile function of the myocardium versus placebo or riboxine,"myocardial infarction; myocardial infarction patients, three 0.2 g tablets per day orally, 7th to 28th day",recovery of the contractile function of the myocardium was more rapid
same,progression of cardiac insufficiency,myocardial infarction; patients suffering from cardiac insufficiency,prevented the progression of the condition
same,cases with complete synchronous regeneration,[3]; 20 mg/kg orally,100%
same,animals with reduction of the wound area,[3]; 50 mg/kg,67%
same,LD50,rats; given intraperitoneally,1210 mg/kg
same,LD50,rats; oral administration,more than 20000 mg/kg
same,clinical picture and biochemical indicators,[4],improves the clinical picture and normalizes biochemical indicators
